Consider one compound from US20230255943A1, “MMP-9 AND MMP-12 INHIBITION FOR TREATING SPINAL CORD INJURY OR RELATED INJURY TO NEUROLOGICAL TISSUE” (The University of Birmingham, priority 2020, published 2023).

Holding throughout (type): in vivo, mouse
The test system of assay [1] is mice with DC crush injury. The assay can be described thus: Tape removal test (sensory function) after DC injury in mice. How it is done:
Functional testing after DC lesion and treatment was carried out as described previously (N. D. Fagoe, C. L. Attwell, R. Eggers, L. Tuinenbreijer, D. Kouwenhoven, J. Verhaagen, M. R. Mason, Evaluation of Five Tests for Sensitivity to Functional Deficits following Cervical or Thoracic Dorsal Column Transection in the Rat. PLoS One 11, e0150141 (2016)).
Briefly, animals (n=18/group) were first trained to master traversing a horizontal ladder for 1 w before functional testing. Baseline parameters were established by performing tests at 2-3d before injury. Animals were then tested at 2d, 1 w, 2 w, 3 w, 4 w, 5 w and 6 w after DC injury+treatment. Experiments were performed by an observer masked to the treatment conditions in the same order and time of day with each test performed for 3 individual trials.
Tape removal test (sensory function): The tape removal test determines touch perception from the left hind paw. After holding animals with both hind-paws extended, the time it took for the animal to detect and remove a piece of tape of 15×15 mm (Kip Hochkrepp, Bocholt, Germany) affixed to the palm of the left hind-paw was recorded and used to calculate the mean sensing time.

Assay [2] has as its system mice with DC crush injury. The assay can be described thus: NF200+ spared fibres above and below the lesion. The conditions noted are these: oral.
The test system of assay [3] is mice with DC crush injury. The assay can be described thus: Immunohistochemistry of CD11b, CD68 and GFAP at lesion site. The note with it: immediate or delayed by 24 h. From the text:
After killing animals by exposure to rising concentrations of CO2, mice were intracardially perfused with 4% formaldehyde (TAAB Laboratories, Berkshire, UK) in 0.1M phosphate buffered saline (PBS). The lesion site+5 mm either side were dissected out, post-fixed in 4% formaldehyde and subjected to a graded series of sucrose solutions for cryoprotection. Spinal cords were blocked in OCT mounting compound (TAAB laboratories), sectioned longitudinally at 15 μm-thick using a cryostat (Brights Instruments, Huntingdon, UK) before being collected on charged glass slides (ThermoFisher Scientific, Loughborough, UK) and kept at −20° C. until required. Slides were numbered consecutively and sections from the middle of the lesion site were chosen for all immunohistochemical analyses, as described by previously (Surey S, Berry M, Logan A, Bicknell R, Ahmed Z. Differential cavitation, angiogenesis and wound-healing responses in injured mouse and rat spinal cords. Neuroscience 2014; 275: 62-80).
Fluorescent immunohistochemistry was performed as described previously (S. Surey, M. Berry, A. Logan, R. Bicknell, Z. Ahmed, Differential cavitation, angiogenesis and wound-healing responses in injured mouse and rat spinal cords. Neuroscience 275, 62-80 (2014)). […] Laminin was detected at 4 weeks after DC injury and treatment using a rabbit polyclonal anti-laminin primary antibody (ab11575; 1:400 dilution, Abcam). Macrophages were detected with a rabbit polyclonal anti-CD68 antibody (ab1525212; 1:500 dilution, Abcam); microglia were detected using a rabbit polyclonal antibody to CD11b (ab128797, 1:500 dilution, Abcam); GFAP was detected using a polyclonal anti-GFAP antibody (SAB5700611, 1:400 dilution, Sigma) were all detected at 10 days after DC injury and treatment. Semaphorin-3A (Sema-3A) and chondroitin sulphate proteoglycan (CSPG) was detected using monoclonal anti-CS-56 antibody (C8035; 1:200 dilution, Sigma) at 7 days after injury. […] CTB labelled axons in the mouse were detected using a goat polyclonal anti-CTB antibody (#703; 1:1000 dilution, List Biological Labs) at 6 weeks after DC injury. […]

As to `C[C@]1(CS(=O)(=O)N2CC=C(C#Cc3cnc(C4CC4)nc3)CC2)NC(=O)NC1=O` [AZD1236], the “sensory function, 24-h delayed treatment” value in assay [1] (optimal doses, 24 h delay vs immediate) is reported as “equally as effective as immediate delivery”. Also, the “improvement in sensory function” value in assay [1] (oral) stood at 85%. Besides, in assay [1] (oral, by 3 weeks), the “mean tape sensing and removal time” value is reported as “indistinguishable from sham-treated groups”. The “NF200+ spared fibres above (T9) and below (T7) the lesion site” value in assay [2] is given as “significantly preserved axon fibres”. Further, in assay [3], the “CD11b immunoreactivity at the lesion site” value is listed as “significantly reduced”, the “CD68 immunoreactivity at the lesion site” value was “significantly reduced” and the “GFAP+ immunoreactivity at the lesion site” value is reported as “significantly reduced”.
